The record followed here is ChEMBL document CHEMBL4038324, “Amidoalkylindoles as Potent and Selective Cannabinoid Type 2 Receptor Agonists with in Vivo Efficacy in a Mouse Model of Multiple Sclerosis” (J Med Chem, 2017).

Each structure is given as a SMILES string. The source made the active and inactive calls. No cut-off for these calls is given here.

For data set [1], the target named is Cannabinoid receptor 1 (Rattus norvegicus, UniProt P20272). Put plainly: Agonist activity at rat CB1 receptor expressed in mouse AtT20 cells by FLIPR membrane potential assay. It counts as cell-based.
The target of data set [2] is T1, Cannabinoid receptor 2 (Homo sapiens, UniProt P34972). Put plainly: Agonist activity at human N-terminal HA-tagged CB2 receptor expressed in mouse AtT20 cells by FLIPR membrane potential assay. In kind it is cell-based.
The target in data set [3] is T2, Cannabinoid receptor 1 (Homo sapiens, UniProt P21554). Put plainly: Agonist activity at human CB1 receptor expressed in CHO cells assessed as induction of Ca2+ flux at 10 uM after 10 mins by Fluor-4 AM dye based assay. It counts as cell-based.
The target of data set [4] is T1, Cannabinoid receptor 2. In words: Agonist activity at human CB2 receptor expressed in CHO cells assessed as induction of Ca2+ flux after 10 mins by Fluor-4 AM dye based assay. In kind it is functional, cell-based.
Data set [5] addresses T1, Cannabinoid receptor 2. In words: Agonist activity at human CB2 receptor expressed in CHO cells assessed as induction of Ca2+ flux after 10 mins by Fluor-4 AM dye based assay relative to CP55940. In kind it is functional, cell-based.
Data set [6] addresses T3, Cannabinoid receptor 1 (CB1) (Homo sapiens, UniProt P21554). In words: Antagonist activity at human CB1 receptor expressed in CHO cells assessed as inhibition of CP55940-induced Ca2+ flux at 10 uM preincubated for 10 mins followed by agonist addition by Fluor-4 AM dye based assay. In kind it is cell-based. The note with it: CHO cells expressing human CB1 receptor.
The target in data set [7] is T1, Cannabinoid receptor 2. Put plainly: Antagonist activity at human CB2 receptor expressed in CHO cells assessed as inhibition of CP55940-induced Ca2+ flux at 10 uM preincubated for 10 mins followed by agonist addition by Fluor-4 AM dye based assay. In kind it is functional, cell-based.
The target in data set [8] is T1, Cannabinoid receptor 2. In words: Agonist activity at human CB2 receptor expressed in CHO cells assessed as inhibition of forskolin-induced cAMP accumulation preincubated for 20 mins followed by forskolin addition measured after 30 mins by HTRF assay. It counts as functional, cell-based.
Data set [9] can be described thus: Elimination rate constant in C57 mouse at 10 mg/kg, ip measured up to 2 hrs by LC-MS/MS analysis. It counts as ADME, organism-based. As to conditions: in vivo.
Data set [10] can be described thus: Half life in C57 mouse at 10 mg/kg, ip measured up to 2 hrs by LC-MS/MS analysis. It counts as ADME, organism-based. The note with it: in vivo.
Data set [11] can be described thus: Tmax in C57 mouse at 10 mg/kg, ip measured up to 2 hrs by LC-MS/MS analysis. It counts as ADME, organism-based. The note with it: in vivo.
The nature of data set [12]: Cmax in C57 mouse at 10 mg/kg, ip measured up to 2 hrs by LC-MS/MS analysis. Also noted: dose 10 mg/kg, route intraperitoneal. The note with it: in vivo. It counts as ADME, organism-based.
A short description of data set [13]: AUC (0 to t) in C57 mouse at 10 mg/kg, ip measured up to 2 hrs by LC-MS/MS analysis. As to conditions: in vivo. In kind it is ADME, organism-based. Also noted: dose 10 mg/kg, time < 2 hr, route intraperitoneal.
The nature of data set [14]: AUC (0 to infinity) in C57 mouse at 10 mg/kg, ip measured up to 2 hrs by LC-MS/MS analysis. It counts as ADME, organism-based. More on the design: dose 10 mg/kg, time infinity, route intraperitoneal. The note with it: in vivo.
For data set [15], the system named is Mus musculus. Put plainly: AUMC (0 to t) in C57 mouse at 10 mg/kg, ip measured up to 2 hrs by LC-MS/MS analysis. It counts as ADME, organism-based. The note with it: in vivo.
The subject of data set [16] is Mus musculus. In words: AUMC (0 to infinity) in C57 mouse at 10 mg/kg, ip measured up to 2 hrs by LC-MS/MS analysis. In kind it is ADME, organism-based. As to conditions: in vivo.
A short description of data set [17]: MRT in C57 mouse at 10 mg/kg, ip measured up to 2 hrs by LC-MS/MS analysis. The note with it: in vivo. In kind it is ADME, organism-based.
The subject of data set [18] is Mus musculus. Put plainly: In vivo partial agonist activity at CB2 receptor in EAE C57BL/6 mouse model assessed as reduction in clinical signs at 10 to 30 mg/kg, ip administered from day 3 after immunization with MOG until day 27. In kind it is functional, organism-based.
The test system of data set [19] is Mus musculus. Put plainly: In vivo partial agonist activity at CB2 receptor in EAE C57BL/6 mouse model assessed as reduction in leukocyte infiltration in white matter region at 10 to 30 mg/kg, ip administered from day 3 after immunization with MOG until day 19 by H and E staining based assay. It counts as functional, organism-based.
Data set [20] has as its system Mus musculus. In words: In vivo partial agonist activity at CB2 receptor in EAE C57BL/6 mouse model assessed as reduction in extensive demyelination in white matter at 10 to 30 mg/kg, ip administered from day 3 after immunization with MOG until day 19 by Luxol fast blue staining based assay. It counts as functional, organism-based.
Data set [21] in a line: Ratio of Cmax in C57 mouse at 10 mg/kg, ip to EC50 for human CB2 receptor expressed in CHO cells assessed as induction of Ca2+ flux.
The target of data set [22] is T2, Cannabinoid receptor 1. In words: Agonist activity at human CB1 receptor expressed in CHO cells assessed as induction of Ca2+ flux after 10 mins by Fluor-4 AM dye based assay. In kind it is cell-based.
In data set [23] the target is T3, Cannabinoid receptor 1 (CB1). In words: Agonist activity at human CB1 receptor expressed in CHO cells assessed as induction of Ca2+ flux after 10 mins by Fluor-4 AM dye based assay relative to CP55940. It counts as cell-based. As to conditions: CHO cells expressing human CB1 receptor.
Data set [24] concerns the target T1, Cannabinoid receptor 2. Put plainly: Agonist activity at human CB2 receptor expressed in CHO cells assessed as induction of Ca2+ flux at 10 uM after 10 mins by Fluor-4 AM dye based assay. In kind it is functional, cell-based.
For data set [25], the target named is T1, Cannabinoid receptor 2. Put plainly: Antagonist activity at human CB2 receptor expressed in CHO cells assessed as inhibition of CP55940-induced Ca2+ flux preincubated for 10 mins followed by agonist addition by Fluor-4 AM dye based assay. In kind it is functional, cell-based.

T2 sequence (P21554 whole entry): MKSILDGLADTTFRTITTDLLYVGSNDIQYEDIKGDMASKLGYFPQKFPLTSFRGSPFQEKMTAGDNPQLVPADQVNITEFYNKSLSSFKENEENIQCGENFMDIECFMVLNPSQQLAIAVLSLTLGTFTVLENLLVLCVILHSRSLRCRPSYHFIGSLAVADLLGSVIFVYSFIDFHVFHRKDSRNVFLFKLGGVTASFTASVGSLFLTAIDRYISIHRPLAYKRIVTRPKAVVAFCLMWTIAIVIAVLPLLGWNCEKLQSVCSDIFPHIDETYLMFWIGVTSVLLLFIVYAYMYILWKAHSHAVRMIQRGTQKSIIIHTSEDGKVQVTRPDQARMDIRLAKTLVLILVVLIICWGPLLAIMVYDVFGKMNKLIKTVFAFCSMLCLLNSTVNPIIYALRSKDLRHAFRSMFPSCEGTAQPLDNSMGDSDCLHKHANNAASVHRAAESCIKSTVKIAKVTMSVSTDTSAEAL
T3 sequence (P21554 whole entry): as above
T1 sequence (P34972 whole entry): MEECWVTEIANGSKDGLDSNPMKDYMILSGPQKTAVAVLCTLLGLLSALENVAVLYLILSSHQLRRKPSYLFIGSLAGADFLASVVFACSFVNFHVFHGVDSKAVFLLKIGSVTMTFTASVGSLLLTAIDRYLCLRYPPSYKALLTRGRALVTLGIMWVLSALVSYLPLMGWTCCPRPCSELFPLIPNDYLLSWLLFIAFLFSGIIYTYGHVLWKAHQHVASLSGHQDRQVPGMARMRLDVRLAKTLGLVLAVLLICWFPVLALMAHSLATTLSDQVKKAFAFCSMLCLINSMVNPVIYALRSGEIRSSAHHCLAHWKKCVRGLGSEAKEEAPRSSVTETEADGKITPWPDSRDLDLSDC
Chain of Cannabinoid receptor 1 (Rattus norvegicus, UniProt P20272) (P20272 whole entry): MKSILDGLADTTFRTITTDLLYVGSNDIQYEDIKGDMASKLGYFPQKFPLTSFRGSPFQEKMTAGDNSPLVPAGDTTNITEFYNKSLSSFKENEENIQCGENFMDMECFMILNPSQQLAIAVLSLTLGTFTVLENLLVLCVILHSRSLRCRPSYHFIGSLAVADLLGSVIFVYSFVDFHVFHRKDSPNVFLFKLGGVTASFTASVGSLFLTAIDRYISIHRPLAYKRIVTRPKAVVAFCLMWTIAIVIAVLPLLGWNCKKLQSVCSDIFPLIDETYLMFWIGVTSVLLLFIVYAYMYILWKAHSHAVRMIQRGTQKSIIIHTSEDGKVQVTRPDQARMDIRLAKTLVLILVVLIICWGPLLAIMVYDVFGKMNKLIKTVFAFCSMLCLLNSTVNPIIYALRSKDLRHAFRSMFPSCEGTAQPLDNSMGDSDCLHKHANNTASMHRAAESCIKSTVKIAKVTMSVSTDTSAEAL

Turning to `CCCCCn1cc(C(=O)C23CC4CC(CC(C4)C2)C3)c2ccccc21`, the EC50 on Cannabinoid receptor 1 [1] is 35 to 40 nM; at Cannabinoid receptor 2 [2], 29 to 89 nM.
Take `O=C(NC12CC3CC(CC(C3)C1)C2)c1cc2ccccc2n1CCCCO`: the Activity on Cannabinoid receptor 1 [3] is under 50%. The EC50 was 120 nM on Cannabinoid receptor 2 [4] and 142 nM on Cannabinoid receptor 2 [8]. The Emax on Cannabinoid receptor 2 [5] was 85%. In addition, in data set [6], the inhibition at 10 min, 10 µM was under 50%. Moreover, on Cannabinoid receptor 2 [7], the inhibition was under 50%. In addition, the k el at 2 h in data set [9] was 0.000189 s⁻¹. Also, in data set [10], the half-life was 1.04 h. Further, the time of peak concentration (Tmax) in [11] was 0.25 h. Also, the highest concentration (Cmax) in data set [12] came to 350 ng/mL. Also, the area under the curve AUC(0-t) at 2 h in [13] worked out at 317 ng·h/mL. Besides, the area under the curve AUC(0-inf) in data set [14] was 428 ng·h/mL. In the data set with Mus musculus [15], this compound had an AUMCt of 248 hr.hr.ng/ml. This compound also registered an AUMC with Mus musculus [16] of 637 hr.hr.ng/ml. The same compound came in with a mean residence time MRT in data set [17] of 1.51 h. Besides, the result in the data set on Mus musculus [18], in the data set on Mus musculus [19] and in the data set on Mus musculus [20] was Active. In addition, in data set [21], the Ratio was 8.
Take `CCCCCn1cc(C(=O)CC23CC4CC(CC(C4)C2)C3)c2ccccc21`: the results for the EC50 at Cannabinoid receptor 1 [1] and on Cannabinoid receptor 2 [2] were 35 to 40 nM and 29 to 89 nM, respectively.
Consider `N#CCCCn1cc(C(=O)NC23CC4CC(CC(C4)C2)C3)c2ccccc21`, for which the half-maximal effective concentration (EC50) on Cannabinoid receptor 1 [22] amounted to 630 nM; at Cannabinoid receptor 2 [4] it was 31 nM. Also, the Emax at 10 min in data set [23] came to 105%. The Emax at Cannabinoid receptor 2 [5] came out at 70%. For the same compound, in [6], the inhibition at 10 min, 10 µM was under 50%. Besides, the inhibition at Cannabinoid receptor 2 [7] is under 50%.
In the case of `CCCCCn1cc(C(=O)NC23CC4CC(CC(C4)C2)C3)c2ccccc21`, the EC50 on Cannabinoid receptor 1 [22] is 39 nM; on Cannabinoid receptor 2 [4] it was 59 nM; on Cannabinoid receptor 1 [1], 34 nM; on Cannabinoid receptor 2 [2] it was 29 nM. In data set [23], the maximal effect (Emax) at 10 min came to 68.3%. For the same compound, on Cannabinoid receptor 2 [5], the Emax turned out to be 66.3%. Further, the inhibition at 10 min, 10 µM in [6] is under 50%. Further, the inhibition at Cannabinoid receptor 2 [7] is under 50%.
As to `CSc1cccc2c(C(=O)NC34CC5CC(CC(C5)C3)C4)cn(CCN3CCOCC3)c12`, the Activity at Cannabinoid receptor 1 [3] and on Cannabinoid receptor 2 [24] was under 50% in each case. The 50% effective concentration (EC50) on Cannabinoid receptor 2 [4] is over 100000 nM. In addition, in data set [6], the inhibition at 10 min, 10 µM is under 50%. On Cannabinoid receptor 2 [25], the half-inhibitory concentration (IC50) was 28 nM.
With `O=C(NC12CC3CC(CC(C3)C1)C2)c1cn(CCCCCO)c2ccccc12`, the results for the half-maximal effective concentration (EC50) on Cannabinoid receptor 1 [22] and at Cannabinoid receptor 2 [4] were 4100 nM and 62 nM, respectively. In addition, in data set [23], the Emax at 10 min worked out at 76.7%. Besides, the Emax at Cannabinoid receptor 2 [5] amounted to 63.3%. Moreover, in data set [6], the inhibition at 10 min, 10 µM was under 50%. Besides, the inhibition on Cannabinoid receptor 2 [7] is under 50%.
As to `COc1cccc2c(C(=O)NC34CC5CC(CC(C5)C3)C4)cn(CCN3CCOCC3)c12`, the Activity at Cannabinoid receptor 1 [3] and on Cannabinoid receptor 2 [24] was under 50% in each case. On Cannabinoid receptor 2 [4], the EC50 was over 100000 nM. Further, the inhibition at 10 min, 10 µM in data set [6] was under 50%. Moreover, the IC50 on Cannabinoid receptor 2 [25] was found to be 16 nM.
Regarding `Cc1cccc2c(C(=O)NC34CC5CC(CC(C5)C3)C4)cn(CCN3CCOCC3)c12`, the half-maximal effective concentration (EC50) at Cannabinoid receptor 1 [22] stood at 6700 nM. The Emax at 10 min in data set [23] was 63.3%. Also, the Activity at Cannabinoid receptor 2 [24] was under 50%. Also, the Emax result on Cannabinoid receptor 2 [5] is “inactive”. Moreover, the inhibition at 10 min, 10 µM in [6] was under 50%. Moreover, at Cannabinoid receptor 2 [7], the inhibition is under 50%.
As to `O=C(NC12CC3CC(CC(C3)C1)C2)c1cn(CCN2CCOCC2)c2ccccc12`, the EC50 at Cannabinoid receptor 1 [22] turned out to be 3300 nM; at Cannabinoid receptor 2 [4] it was 59 nM. The Emax at 10 min in data set [23] came out at 75%. For the same compound, the maximum response (Emax) at Cannabinoid receptor 2 [5] is 56.7%. Moreover, in data set [6], the inhibition at 10 min, 10 µM is under 50%. On Cannabinoid receptor 2 [7], the inhibition is under 50%. In addition, the 50% inhibitory concentration (IC50) on Cannabinoid receptor 2 [25] is over 100000 nM.
